From ChEMBL document CHEMBL1201862, “PubChem BioAssay data set” (2004)
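Dose response: 5 concentrations. Exposure: 48 h. Format: 96-well plates. Endpoint: linear interpolation; highest concentration if not reached. GI50 = concentration required for 50% inhibition of growth.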 Activity calls are given as the source filed them. No stated cut-off is given here; in the data, active = GI50 up to about 1.1 µM and inactive = higher.

Key:
Assay in all cases: NCI anticancer screen, dose series, 48 h
[1] = system: KM12
[2] = system: NCI-H226
[3] = system: SF-295
[4] = system: U-251
[5] = system: OVCAR-5
[6] = system: HOP-62
[7] = system: Malme-3M
[8] = system: LOX IMVI
[9] = system: SK-MEL-2
[10] = system: DU-145
[11] = system: UACC-257
[12] = system: K562
[13] = system: OVCAR-8
[14] = system: A498
[15] = system: IGROV-1
[16] = system: COLO 205
[17] = system: CCRF-CEM
[18] = system: TK-10
[19] = system: OVCAR-4

Measured: GI50

CCOC(=O)c1ccc(N(C)Cc2cnc3nc(N)nc(N)c3n2)cc1
inactive: [1] 15.8 µM | [2] 20.1 µM | [3] 10.2 µM | [4] 8.99 µM | [5] 17.4 µM | [6] 13 µM | [7] 16.6 µM | [8] 5.5 µM | [9] 21.4 µM | [10] 15.8 µM | [11] 9.77 µM | [12] 2.58 µM | [13] 7.64 µM | [14] 13.1 µM | [15] 5.71 µM | [16] > 100 µM | [17] 89.9 µM | [18] 13.8 µM

CCOC(=O)c1cnn2c1ncc1c(=O)n(NC(N)=O)ccc12
inactive: [1] > 100 µM | [2] > 100 µM | [3] > 100 µM | [4] > 100 µM | [19] > 100 µM | [5] > 100 µM | [6] > 100 µM | [7] > 100 µM | [8] > 100 µM | [9] > 100 µM | [10] > 100 µM | [11] > 100 µM | [13] > 100 µM | [14] > 100 µM | [15] > 100 µM | [16] > 100 µM | [17] > 100 µM | [18] > 100 µM

CCOC(=O)NC(Nc1cccc(C(F)(F)F)c1)(C(F)(F)F)C(F)(F)F
inactive: [1] > 100 µM | [2] > 100 µM | [3] > 100 µM | [4] > 100 µM | [5] > 100 µM | [6] > 100 µM | [7] > 100 µM | [8] > 100 µM | [9] > 100 µM | [10] > 100 µM | [11] > 100 µM | [12] > 100 µM | [13] > 100 µM | [14] > 100 µM | [15] > 100 µM | [16] > 100 µM | [17] > 100 µM | [18] > 100 µM

N#Cc1c(-c2ccc(Cl)cc2)c(C#N)c(=O)n(NS(=O)(=O)c2ccccc2)c1S
inactive: [2] 30.3 µM | [3] 34.2 µM | [4] 23.1 µM | [19] 56.6 µM | [5] 54.7 µM | [7] 25.9 µM | [8] 18 µM | [9] 47.3 µM | [10] 52.8 µM | [11] 46.7 µM | [12] 27.9 µM | [13] 19.9 µM | [14] 27.7 µM | [15] 21.6 µM | [16] 30.5 µM | [17] 5.79 µM | [18] 18.5 µM

CCOC(=O)N/N=C/C1=NN(C(=O)OCC)[S+]([O-])C1C (stereo not given)
inactive: [1] > 100 µM | [2] > 100 µM | [3] > 100 µM | [4] > 100 µM | [19] > 100 µM | [5] > 100 µM | [6] > 100 µM | [7] > 100 µM | [9] > 100 µM | [10] > 100 µM | [11] > 100 µM | [12] > 100 µM | [13] > 100 µM | [14] > 100 µM | [15] > 100 µM | [16] > 100 µM | [17] > 100 µM | [18] > 100 µM

C=C1CC[C@@]2(C)[C@@H]([C@@H]1C)[C@H]1CC[C@@H]3[C@@]4(C)CC[C@H](O)C(C)(C)[C@@H]4CC[C@@]3(C)[C@]1(C)C[C@@H]2O
inactive: [1] 3.65 µM | [2] 5 µM | [3] 3.49 µM | [4] 1.73 µM | [19] 2.49 µM | [5] 4.25 µM | [6] 2.24 µM | [7] 3.25 µM | [8] 1.99 µM | [9] 3.67 µM | [10] 4.57 µM | [11] 8.07 µM | [13] 1.85 µM | [14] 2.16 µM | [15] 2 µM | [16] 4.23 µM | [17] 5.83 µM | [18] 5.62 µM

N=C(N)NCCCC(=O)O
inactive: [1] > 100 µM | [2] > 100 µM | [3] > 100 µM | [4] > 100 µM | [19] > 100 µM | [5] > 100 µM | [6] > 100 µM | [7] > 100 µM | [8] > 100 µM | [9] > 100 µM | [10] > 100 µM | [12] > 100 µM | [13] > 100 µM | [14] > 100 µM | [15] > 100 µM | [16] > 100 µM | [17] > 100 µM | [18] > 100 µM

CNc1ccc(Cl)cc1S(=O)(=O)c1ccccc1[N+](=O)[O-]
inactive: [2] > 100 µM | [3] > 100 µM | [4] > 100 µM | [19] 99.3 µM | [5] > 100 µM | [6] > 100 µM | [7] > 100 µM | [8] > 100 µM | [9] > 100 µM | [10] > 100 µM | [12] > 100 µM | [13] > 100 µM | [14] > 100 µM | [15] > 100 µM | [16] > 100 µM | [17] > 100 µM | [18] > 100 µM

CC(C)(Oc1ccc(Cl)cc1)C(=O)N(C(=O)N1CCN(c2ccccc2)CC1)c1ccccc1
inactive: [1] 6.22 µM | [2] 8.09 µM | [3] 33.2 µM | [4] 6.21 µM | [19] 8.49 µM | [5] > 100 µM | [6] > 100 µM | [7] > 100 µM | [8] > 100 µM | [9] > 100 µM | [10] > 100 µM | [11] 5.62 µM | [12] 3.96 µM | [13] > 100 µM | [14] 84.9 µM | [16] 6.49 µM | [17] 7.1 µM | [18] 68.5 µM

Fc1ccc(C(=C2CCN(CCc3ccc4[nH]c(=S)[nH]c4c3)CC2)c2ccc(F)cc2)cc1
inactive: [1] 6.47 µM | [2] 22 µM | [3] 6.92 µM | [4] 4.48 µM | [19] 5 µM | [5] 9.23 µM | [6] 15.8 µM | [7] 1.47 µM | [8] 4.9 µM | [9] 2.7 µM | [10] 2.98 µM | [12] 3.1 µM | [13] 2.74 µM | [14] 8.38 µM | [15] 3.99 µM | [16] 1.72 µM | [17] 2.01 µM | [18] 2.17 µM

CC(=O)Nc1cc2nc3n(c2cc1C)CCC3OC(C)=O (stereo not given)
inactive: [1] > 100 µM | [2] > 100 µM | [3] > 100 µM | [4] > 100 µM | [19] > 100 µM | [5] > 100 µM | [7] > 100 µM | [8] > 100 µM | [9] > 100 µM | [10] > 100 µM | [11] > 100 µM | [12] > 100 µM | [13] > 100 µM | [14] > 100 µM | [15] > 100 µM | [16] > 100 µM | [17] > 100 µM
